pIC50: −log10 of the molar value.
What was measured:
[1] = species on record: Canis familiaris; experiment: Inhibition of PKC-dependent neutrophil superoxide burst in dogs; format: functional, Canis lupus familiaris
[2] = species on record: Mus musculus; experiment: Anti-inflammatory activity on the mice ears using antiinflammatory assay (TPAEE); format: functional
[3] = species on record: Mus musculus; experiment: Percent change in punch weights [right ear(received drug) -left ear(received vehicle)] was determined in mice at a dose of 1 mg/ear; format: functional
[4] = target: Protein kinase C (PKC); experiment: Inhibition of Protein kinase C isolated from rat brain

Row | Compound | pIC50 ([1]; Canis lupus familiaris) | pIC50 [1] | IC50 [4] | ED50 [2] | Change [3]
1 | CCCCCCCCCCCCC/C=C/[C@@H](O)[C@@H](N)CO [SPHINGOSINE] | 5.38 | – | – | 0.31 mg ear-1 | -74%
2 | CC(=O)O.CCCCCCCCCCC#Cc1cccc([C@@H](O)[C@@H](N)CO)c1 (racemic) | 5.62 | – | – | 0.34 mg ear-1 | -82%
3 | CC(=O)O.CCCCCCCCCCC#Cc1cccc([C@@H](O)[C@@H](N)CO)c1 (stereo in doubt; 10 (-)) | – | 5.66 | 21.8 µM | – | -74%
4 | CC(=O)O.CCCCCCCCCCC#Cc1cccc([C@@H](O)[C@@H](N)CO)c1 (stereo in doubt; 11(+)) | – | – | 19.5 µM | – | –
5 | CCCCCCCCCCC#Cc1csc([C@@H](O)[C@@H](N)CO)c1.O=C(O)CCC(=O)O (stereo in doubt; 19 (+)) | – | 6.00 | 23 µM | – | -63%
6 | CC(=O)O.CCCCCCCCCCC#Cc1ccc([C@@H](O)[C@@H](N)CO)s1 | 5.74 | – | 21.3 µM | – | -81%
7 | CC(=O)O.CCCCCCCCCCC#Cc1ccc([C@@H](O)[C@@H](N)CO)s1 (racemic) | – | 5.82 | – | 0.24 mg ear-1 | –

More lines, main results first:

Row | pIC50 ([1]; Canis lupus familiaris) | pIC50 [1] | IC50 [4] | Compound | ED50 [2] | Change [3]
8 | – | – | 28.8 µM | CCCCCCCCCCC#Cc1csc([C@@H](O)[C@@H](N)CO)c1.Cl (stereo in doubt; 3a (+/-)) | 0.23 mg ear-1 | -81%
9 | – | – | 20.1 µM | CCCCCCCCCCC#Cc1csc([C@@H](O)[C@@H](N)CO)c1.Cl (stereo in doubt; 18a) | – | –
10 | – | 5.82 | – | CCCCCCCCCCC#Cc1csc([C@@H](O)[C@@H](N)CO)c1 (racemic) | – | –
11 | – | – | 23 µM | CCCCCCCCCCC#Cc1csc([C@@H](O)[C@@H](N)CO)c1.Cl (stereo in doubt; 19a) | – | –
12 | 5.89 | – | 20.1 µM | CCCCCCCCCCC#Cc1csc([C@@H](O)[C@@H](N)CO)c1.O=C(O)CCC(=O)O (stereo in doubt; 18 (-)) | – | -73%

Reference: ChEMBL document CHEMBL1128648, “The enantioselective synthesis and antiinflammatory activity of novel aryl-sphingolipid PKC inhibitors” (Bioorg Med Chem Lett, 1995)
